Patent US8846698B2, “Pyrrolo[2,3-d]pyrimidine tropomysin-related kinase inhibitors” (Pfizer Limited, priority 2011, dated 2014)
Like-named read-outs stand apart in the source and are kept apart here.

How the values were obtained:
TRKB [1] = target: T1, TRKB (Homo sapiens (Human), UniProt Q16620); assay: biochemical
TRKB [2] = target: T1, TRKB; assay: cell-based; conditions: TrkB cell potency, TRKB PathHunter cell line
Method: (§1) After the Detection Reagent addition, plates are covered and incubated at room temperature for 60 minutes. […] Test compound data are expressed as percentage inhibition defined by HPE and ZPE values for each plate. Percentage inhibition in the presence of test compound is plotted against compound concentration on a log scale to determine an IC50 from the resultant sigmoid curve. Cell Based Assays were carried out using Cell lines from DiscoveRx utilising their PathHunter technology and reagents in an antagonist assay:
(§2) The assays are based upon DiscoveRx's proprietary Enzyme Fragment Complementation (EFC) technology. In the case of the TRK cell lines, the enzyme acceptor (EA) protein is fused to a SH2 protein and the TRK receptor of interest has been tagged with a Prolink tag.
(§3) Upon neurotrophin binding, the TRK receptor becomes phosphorylated, and the tagged SH2 protein binds.
(§4) This means that the IC50 is a good measure of affinity and should be unaffected by concentration neurotrophin stimulant.
(§5) Cryopreserved PathHunter cells are used from either in-house produced batches or bulk batches bought directly from DiscoveRx. Cryopreserved cells are resuscitated, spun 1000 rpm for 4 min to remove freezing media, and resuspended in MEM+0.5% horse serum (both Invitrogen) to 5e^5 cells/ml. The cells are then plated using a Multidrop into Greiner white tissue culture treated plates at 20 ul/well and incubated for 24 h at 37° C., 5% CO2, high humidity. On the day of the assay, the cell plates are allowed to cool to room temperature for 30 min prior to the assay.
(§6) Plates containing 1 ul of serially diluted compound, standard and HPE/ZPE are diluted 1/66 in assay buffer (PBS minus Ca^2+, minus Mg^2+ with 0.05% pluronic F127) using a Wellmate. […] The plates are left at room temperature for a further 2 hours before addition of 10 ul of the DiscoveRx PathHunter detection reagent (made up by adding 1 part Galacton Star, 5 parts Emerald II and 19 parts Cell Assay Buffer as per the manufacturer's instructions).
(§7) After reagent addition, plates are covered and incubated at room temperature for 60 minutes. Luminescence signal is read using an Envision. Test compound data are expressed as percentage inhibition defined by HPE and ZPE values for each plate. Percentage inhibition in the presence of test compound is plotted against compound concentration on a log scale to determine an […] from the resultant sigmoid curve.

TRKA [3] = target: T2, TRKA (Homo sapiens (Human), UniProt P04629); assay: Cell based DiscoveRx PathHunter antagonist assay, TRKA cell line; conditions: read-out: TrkA cell potency
Method: as §1, §2, §3, §4, §5, §6, §7
Target sequence in this assay (P04629 33-796): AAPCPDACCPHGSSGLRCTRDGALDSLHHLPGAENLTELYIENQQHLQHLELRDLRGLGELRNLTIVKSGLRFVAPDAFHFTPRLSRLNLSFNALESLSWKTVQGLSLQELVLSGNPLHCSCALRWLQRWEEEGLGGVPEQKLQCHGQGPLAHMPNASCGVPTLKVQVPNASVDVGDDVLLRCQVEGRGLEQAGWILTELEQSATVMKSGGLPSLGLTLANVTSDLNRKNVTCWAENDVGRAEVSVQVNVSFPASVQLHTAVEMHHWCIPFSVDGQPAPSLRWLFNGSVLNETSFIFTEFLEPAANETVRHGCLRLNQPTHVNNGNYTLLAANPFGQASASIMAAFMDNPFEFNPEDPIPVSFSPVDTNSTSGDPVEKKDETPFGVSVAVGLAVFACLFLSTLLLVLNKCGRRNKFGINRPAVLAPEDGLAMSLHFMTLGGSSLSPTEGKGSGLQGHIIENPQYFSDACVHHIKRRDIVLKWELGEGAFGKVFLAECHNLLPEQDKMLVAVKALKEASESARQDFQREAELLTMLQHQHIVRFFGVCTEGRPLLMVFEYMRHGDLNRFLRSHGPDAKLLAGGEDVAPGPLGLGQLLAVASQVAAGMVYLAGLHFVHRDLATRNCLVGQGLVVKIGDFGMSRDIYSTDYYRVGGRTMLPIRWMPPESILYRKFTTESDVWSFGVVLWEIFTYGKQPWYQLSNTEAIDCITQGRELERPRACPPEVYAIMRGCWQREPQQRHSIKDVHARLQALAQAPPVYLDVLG

TRKC = TRKC (Homo sapiens (Human), UniProt Q16288); assay: Cell based DiscoveRx PathHunter antagonist assay, TRKC cell line; conditions: read-out: TrkC cell potency
Method: as §1, §2, §3, §4, §5, §6, §7

MDR1 = MDR1 (Homo sapiens (Human), UniProt P08183); assay: MDCK-MDR1 assay (in vitro brain penetration); assay type: in vitro ADME; conditions: human; for Papp B→A: read-out: MDCK MDR1 Papp BA; for Papp A→B: MDCK-MDR1, A to B, read-out: MDCK MDR1 Papp AB
Text: MDCK-MDR1: MDCK-MDR1 data were collected according to the method described in “Are MDCK Cells Transfected with the Human MDR1 Gene a Good Model of the Human Intestinal Mucosa?”
http://www.springerlink.com/content/qfhqlqbr4fnp3 khf/fulltext.pdf

TRKA [4] = target: T2, TRKA; assay: Isolated TRK enzyme assay (HTRF KinEASE-TK), TRKA; assay type: biochemical; conditions: isolated TRKA enzyme; read-out: TrkA enzyme potency
Target sequence in this assay (P04629 441-796): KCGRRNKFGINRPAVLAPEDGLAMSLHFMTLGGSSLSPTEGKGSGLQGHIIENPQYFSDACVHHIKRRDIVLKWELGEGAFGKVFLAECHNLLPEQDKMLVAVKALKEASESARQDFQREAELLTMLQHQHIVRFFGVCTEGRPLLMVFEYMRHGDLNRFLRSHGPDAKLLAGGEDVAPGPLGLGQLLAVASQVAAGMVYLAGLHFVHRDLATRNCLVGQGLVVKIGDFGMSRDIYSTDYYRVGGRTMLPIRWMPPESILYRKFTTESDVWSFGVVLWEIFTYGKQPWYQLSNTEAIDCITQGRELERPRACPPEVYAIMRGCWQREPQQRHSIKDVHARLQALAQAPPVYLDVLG

[5] = isolated TRKB enzyme, read-out: TrkB enzyme potency

MDR1, sequence (P08183 whole entry): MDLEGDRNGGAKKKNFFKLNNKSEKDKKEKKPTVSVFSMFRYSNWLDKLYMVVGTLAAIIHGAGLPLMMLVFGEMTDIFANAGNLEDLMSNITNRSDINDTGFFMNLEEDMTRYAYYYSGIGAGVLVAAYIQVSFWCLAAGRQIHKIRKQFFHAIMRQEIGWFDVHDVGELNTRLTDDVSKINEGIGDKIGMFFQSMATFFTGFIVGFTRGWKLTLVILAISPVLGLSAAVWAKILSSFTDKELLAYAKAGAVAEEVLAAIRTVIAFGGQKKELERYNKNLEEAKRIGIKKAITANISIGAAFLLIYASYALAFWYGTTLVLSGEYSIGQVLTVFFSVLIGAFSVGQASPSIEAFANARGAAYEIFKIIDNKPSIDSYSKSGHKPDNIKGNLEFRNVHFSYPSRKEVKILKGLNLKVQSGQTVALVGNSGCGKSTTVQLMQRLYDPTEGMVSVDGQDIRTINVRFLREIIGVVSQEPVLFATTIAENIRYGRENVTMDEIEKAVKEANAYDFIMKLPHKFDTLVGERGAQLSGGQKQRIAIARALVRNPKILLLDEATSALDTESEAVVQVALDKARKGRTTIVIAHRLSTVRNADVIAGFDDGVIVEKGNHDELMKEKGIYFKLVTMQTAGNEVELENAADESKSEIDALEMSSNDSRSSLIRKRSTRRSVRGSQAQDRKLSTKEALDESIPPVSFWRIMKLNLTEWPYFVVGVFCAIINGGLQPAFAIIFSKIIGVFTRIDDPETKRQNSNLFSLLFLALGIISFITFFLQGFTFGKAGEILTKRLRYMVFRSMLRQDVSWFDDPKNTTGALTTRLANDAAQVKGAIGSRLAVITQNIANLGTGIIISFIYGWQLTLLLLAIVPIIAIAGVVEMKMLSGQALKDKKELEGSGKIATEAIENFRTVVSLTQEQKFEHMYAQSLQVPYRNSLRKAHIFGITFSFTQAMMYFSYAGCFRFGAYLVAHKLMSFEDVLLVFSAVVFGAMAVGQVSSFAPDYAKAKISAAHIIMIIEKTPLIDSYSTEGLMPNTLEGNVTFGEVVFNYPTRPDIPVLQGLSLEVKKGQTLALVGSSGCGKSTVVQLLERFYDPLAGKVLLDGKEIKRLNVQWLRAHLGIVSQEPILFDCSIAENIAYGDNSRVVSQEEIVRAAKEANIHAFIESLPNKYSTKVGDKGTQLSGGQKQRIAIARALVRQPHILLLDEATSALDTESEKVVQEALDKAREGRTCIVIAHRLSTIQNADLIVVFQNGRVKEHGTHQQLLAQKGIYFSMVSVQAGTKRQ
T1 sequence (Q16620 32-822 limits assumed): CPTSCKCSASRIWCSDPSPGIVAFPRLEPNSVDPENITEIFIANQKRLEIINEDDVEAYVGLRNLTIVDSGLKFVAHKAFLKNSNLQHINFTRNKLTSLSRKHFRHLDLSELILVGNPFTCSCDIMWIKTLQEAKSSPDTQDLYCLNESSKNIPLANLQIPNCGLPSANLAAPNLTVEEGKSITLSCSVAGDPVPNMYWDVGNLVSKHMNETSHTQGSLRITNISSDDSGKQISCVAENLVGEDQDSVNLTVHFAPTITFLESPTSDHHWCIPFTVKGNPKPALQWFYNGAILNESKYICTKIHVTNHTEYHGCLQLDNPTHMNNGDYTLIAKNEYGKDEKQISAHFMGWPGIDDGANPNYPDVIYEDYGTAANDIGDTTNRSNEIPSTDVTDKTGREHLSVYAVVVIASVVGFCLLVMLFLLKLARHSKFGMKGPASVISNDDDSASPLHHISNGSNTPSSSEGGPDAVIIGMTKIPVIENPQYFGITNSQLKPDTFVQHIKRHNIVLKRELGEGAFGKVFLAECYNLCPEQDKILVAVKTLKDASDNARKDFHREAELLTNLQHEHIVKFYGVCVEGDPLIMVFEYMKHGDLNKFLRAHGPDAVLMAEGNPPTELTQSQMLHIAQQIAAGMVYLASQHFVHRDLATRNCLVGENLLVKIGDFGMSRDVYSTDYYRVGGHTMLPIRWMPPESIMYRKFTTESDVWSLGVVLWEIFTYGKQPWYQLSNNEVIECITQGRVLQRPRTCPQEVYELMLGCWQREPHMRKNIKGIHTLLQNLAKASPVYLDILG
TRKC, sequence (Q16288 32-839): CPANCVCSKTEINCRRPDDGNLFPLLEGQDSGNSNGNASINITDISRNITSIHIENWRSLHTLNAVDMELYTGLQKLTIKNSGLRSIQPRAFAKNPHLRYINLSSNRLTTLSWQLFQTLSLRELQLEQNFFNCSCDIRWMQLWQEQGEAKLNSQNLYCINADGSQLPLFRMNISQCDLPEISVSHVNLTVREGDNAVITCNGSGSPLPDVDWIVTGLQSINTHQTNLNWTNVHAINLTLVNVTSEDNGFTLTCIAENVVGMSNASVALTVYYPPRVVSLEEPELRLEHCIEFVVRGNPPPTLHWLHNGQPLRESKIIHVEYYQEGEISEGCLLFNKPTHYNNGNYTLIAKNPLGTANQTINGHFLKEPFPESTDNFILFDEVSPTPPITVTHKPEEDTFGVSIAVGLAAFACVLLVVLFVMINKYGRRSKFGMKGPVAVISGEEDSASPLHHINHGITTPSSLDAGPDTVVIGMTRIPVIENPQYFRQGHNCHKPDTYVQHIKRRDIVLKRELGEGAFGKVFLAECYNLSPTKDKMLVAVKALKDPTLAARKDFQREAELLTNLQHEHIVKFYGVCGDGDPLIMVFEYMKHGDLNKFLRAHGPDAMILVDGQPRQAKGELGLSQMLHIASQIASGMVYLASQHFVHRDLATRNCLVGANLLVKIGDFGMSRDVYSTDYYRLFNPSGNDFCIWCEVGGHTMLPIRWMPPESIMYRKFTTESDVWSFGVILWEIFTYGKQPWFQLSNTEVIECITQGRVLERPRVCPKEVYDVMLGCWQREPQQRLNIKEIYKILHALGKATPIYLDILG

Row | IC50 (TRKB [1]; [5]) | IC50 (TRKB [2]) | IC50 (TRKA [3]) | IC50 (TRKC) | Papp B→A (MDR1; MDCK-MDR1, MDCK-MDR1, B to A) | Papp A→B (MDR1) | IC50 (TRKA [4]) | IC50 (TRKB [1]; TrkB enzyme potency) | Papp B→A (MDR1; MDCK-MDR1, B to A) | Compound
1 | 200 nM | 25 nM | 23 nM | 13 nM | 11 ×10⁻⁶ cm/s | < 1 ×10⁻⁶ cm/s | 3.6 nM |  |  | CC(CO)n1cc(C(=O)c2cncc(NC(=O)Cc3ccc(Cl)cc3)c2)c2cnc(N)nc21 (single isomer, unassigned) [Example 34, N-(5-{[2-Amino-7-(2-hydroxy-1-methylethyl)-7H-pyrrolo[2,3-d]pyrimidin-5-yl]carbonyl}pyridin-3-yl)-2-(4-chlorophenyl)acetamide]
2 | 303 nM | 13 nM | 11 nM | 13 nM | 12 ×10⁻⁶ cm/s | < 1 ×10⁻⁶ cm/s | 4.5 nM |  |  | CC(CO)n1cc(C(=O)c2cncc(NC(=O)Cc3ccc(C(F)(F)F)cc3)c2)c2cnc(N)nc21 (single isomer, unassigned) [Example 36, N-(5-{[2-amino-7-(2-hydroxy-1-methylethyl)-7H-pyrrolo[2,3-d]pyrimidin-5-yl]carbonyl}pyridin-3-yl)-2-[4-(trifluoromethyl)phenyl]acetamide]
3 | 547 nM | 22 nM | 68 nM |  | 3.1 ×10⁻⁶ cm/s | < 1 ×10⁻⁶ cm/s | 9.2 nM |  |  | C[C@@H](CO)n1cc(C(=O)c2cncc(NC(=O)Cn3ccc(C(F)(F)F)n3)c2)c2cncnc21 [Example 12, N-[5-({7-[(1S)-2-hydroxy-1-methylethyl]-7H-pyrrolo[2,3-d]pyrimidin-5-yl}carbonyl)pyridin-3-yl]-2-[3-(trifluoromethyl)-1H-pyrazol-1-yl]acetamide]
4 | 449 nM | 184 nM | 1130 nM |  | 1 ×10⁻⁶ cm/s | < 1 ×10⁻⁶ cm/s | 20 nM |  |  | C[C@@H](CO)n1cc(C(=O)c2cncc(NC(=O)Cn3cc(C(F)(F)F)nn3)c2)c2cncnc21 [Example 13, N-[5-({7-[(1S)-2-hydroxy-1-methylethyl]-7H-pyrrolo[2,3-d]pyrimidin-5-yl}carbonyl)pyridin-3-yl]-2-[4-(trifluoromethyl)-1H-1,2,3-triazol-1-yl]acetamide]
5 |  | 40 nM | 143 nM |  |  | < 1 ×10⁻⁶ cm/s | 17 nM | 514 nM | 15 ×10⁻⁶ cm/s | C[C@@H](CO)n1cc(C(=O)c2cncc(NC(=O)Cn3nc4ccccc4n3)c2)c2cncnc21 [Example 15, 2-(2H-benzotriazol-2-yl)-N-[5-({7-[(1S)-2-hydroxy-1-methylethyl]-7H-pyrrolo[2,3-d]pyrimidin-5-yl}carbonyl)pyridin-3-yl]acetamide]
6 |  | 206 nM | 1840 nM |  |  | < 1 ×10⁻⁶ cm/s | 249 nM | 5480 nM | 8.5 ×10⁻⁶ cm/s | C[C@H](CO)n1cc(C(=O)c2cncc(NC(=O)Cc3ccc(F)cn3)c2)c2cncnc21 [Example 19, 2-(5-fluoropyridin-2-yl)-N-[5-({7-[(1R)-2-hydroxy-1-methylethyl]-7H-pyrrolo[2,3-d]pyrimidin-5-yl}carbonyl)pyridin-3-yl]acetamide]
7 | 635 nM | 19 nM | 22 nM |  | 17 ×10⁻⁶ cm/s | < 1 ×10⁻⁶ cm/s | 14 nM |  |  | C[C@H](CO)n1cc(C(=O)c2cncc(NC(=O)Cc3ccc(C(F)(F)F)cc3)c2)c2cncnc21 [Example 20, N-[5-({7-[(1R)-2-hydroxy-1-methylethyl]-7H-pyrrolo[2,3-d]pyrimidin-5-yl}carbonyl)pyridin-3-yl]-2-[4-(trifluoromethyl)phenyl]acetamide]
8 | 433 nM | 19 nM | 65 nM |  | 13 ×10⁻⁶ cm/s | < 1 ×10⁻⁶ cm/s | 24 nM |  |  | CC(CO)n1cc(C(=O)c2cncc(NC(=O)Cn3cc(C4CC4)cn3)c2)c2cncnc21 (centres unmarked) [Example 25, 2-(4-Cyclopropyl-1H-pyrazol-1-yl)-N-(5-{[7-(2-hydroxy-1-methylethyl)-7H-pyrrolo[2,3-d]pyrimidin-5-yl]carbonyl}pyridin-3-yl)acetamide]
9 |  | 1.9 nM | 2.7 nM |  |  | < 1 ×10⁻⁶ cm/s | 4.9 nM | 75 nM | 20 ×10⁻⁶ cm/s | CC(C)(CO)n1cc(C(=O)c2cncc(NC(=O)Cc3ccc(Cl)cc3)c2)c2cncnc21 [Example 28, 2-(4-chlorophenyl)-N-(5-{[7-(2-hydroxy-1,1-dimethylethyl)-7H-pyrrolo[2,3-d]pyrimidin-5-yl]carbonyl}pyridin-3-yl)acetamide]
10 |  | 4 nM | 5.8 nM |  |  | 1.3 ×10⁻⁶ cm/s | 2.8 nM | 68 nM | 23 ×10⁻⁶ cm/s | CC(C)(CO)n1cc(C(=O)c2cncc(NC(=O)Cc3ccc(Cl)cn3)c2)c2cncnc21 [Example 29, 2-(5-chloropyridin-2-yl)-N-(5-{[7-(2-hydroxy-1,1-dimethylethyl)-7H-pyrrolo[2,3-d]pyrimidin-5-yl]carbonyl}pyridin-3-yl)acetamide]
11 |  | 7.5 nM | 11 nM |  |  | < 1 ×10⁻⁶ cm/s | 4 nM | 98 nM | 15 ×10⁻⁶ cm/s | CC(C)(CO)n1cc(C(=O)c2cncc(NC(=O)Cn3ccc(C(F)(F)F)n3)c2)c2cncnc21 [Example 30, N-(5-{[7-(2-hydroxy-1,1-dimethylethyl)-7H-pyrrolo[2,3-d]pyrimidin-5-yl]carbonyl}pyridin-3-yl)-2-[3-(trifluoromethyl)-1H-pyrazol-1-yl]acetamide]
12 | 96 nM | 1.6 nM | 2 nM |  | 24 ×10⁻⁶ cm/s | 1 ×10⁻⁶ cm/s | 5.7 nM |  |  | CC(C)(CO)n1cc(C(=O)c2cncc(NC(=O)Cn3cc(C4CC4)cn3)c2)c2cncnc21 [Example 33, 2-(4-cyclopropyl-1H-pyrazol-1-yl)-N-(5-{[7-(2-hydroxy-1,1-dimethylethyl)-7H-pyrrolo[2,3-d]pyrimidin-5-yl]carbonyl}pyridin-3-yl)acetamide]
13 | 27 nM | 13 nM | 35 nM |  | 21 ×10⁻⁶ cm/s | < 1 ×10⁻⁶ cm/s | 25 nM |  |  | Cc1cc(C(F)(F)F)nn1CC(=O)Nc1cncc(C(=O)c2cn(C(C)(C)CO)c3nc(N)ncc23)c1 [Example 47, N-(5-{[2-Amino-7-(2-hydroxy-1,1-dimethylethyl)-7H-pyrrolo[2,3-d]pyrimidin-5-yl]carbonyl}pyridin-3-yl)-2-[5-methyl-3-(trifluoromethyl)-1H-pyrazol-1-yl]acetamide]
14 | 143 nM | 2.1 nM | 10 nM |  | 24 ×10⁻⁶ cm/s | < 1 ×10⁻⁶ cm/s | 6.6 nM |  |  | CC(C)(CO)n1cc(C(=O)c2cncc(NC(=O)Cc3ccc(F)cc3F)c2)c2cnc(N)nc21 [Example 50, N-(5-{[2-amino-7-(2-hydroxy-1,1-dimethylethyl)-7H-pyrrolo[2,3-d]pyrimidin-5-yl]carbonyl}pyridin-3-yl)-2-(2,4-difluorophenyl)acetamide]
15 |  | 4.5 nM | 12 nM |  |  | < 1 ×10⁻⁶ cm/s | 7 nM | 179 nM | 20 ×10⁻⁶ cm/s | CC(C)(CO)n1cc(C(=O)c2cncc(NC(=O)Cn3nc4ccccc4n3)c2)c2cnc(N)nc21 [Example 55, N-(5-{[2-Amino-7-(2-hydroxy-1,1-dimethylethyl)-7H-pyrrolo[2,3-d]pyrimidin-5-yl]carbonyl}pyridin-3-yl)-2-(2H-benzotriazol-2-yl)acetamide]
16 |  | 517 nM | 451 nM |  |  | 1.1 ×10⁻⁶ cm/s | 9.5 nM | 962 nM | 1 ×10⁻⁶ cm/s | CC(C)(CO)n1cc(C(=O)c2cncc(NC(=O)Cn3cc(C4CC4)nn3)c2)c2cnc(N)nc21 [Example 56, N-(5-{[2-Amino-7-(2-hydroxy-1,1-dimethylethyl)-7H-pyrrolo[2,3-d]pyrimidin-5-yl]carbonyl}pyridin-3-yl)-2-(4-cyclopropyl-1H-1,2,3-triazol-1-yl)acetamide]
